Assay results as given in ChEMBL document CHEMBL1149146, “Synthesis and biological evaluation of new 1,2-dihydro-4-hydroxy-2-oxo-3-quinolinecarboxamides for treatment of autoimmune disorders: structure-activity relationship” (2004).
The source made the active and inactive calls.

Experiments:
Mus musculus [1] = test: Inhibition of acute experimental autoimmune encephalomyelitis (aEAE) induced in SJL/N mice at a dose of 1 mg/kg/day, (po); format: functional
Mus musculus [2] = test: Inhibition of acute experimental autoimmune encephalomyelitis in SJL/N mice by 0.2 mg/kg/day p.o.; format: functional; conditions: route oral
Mus musculus [3] = test: Inhibition of acute experimental autoimmune encephalomyelitis in SJL/N mice by 5 mg/kg/day p.o.; format: functional; conditions: route oral
Mus musculus [4] = test: Inhibition of acute experimental autoimmune encephalomyelitis (aEAE) induced in SJL/N mice at a dose of 0.2 mg/kg/day, (po) was determined; Inactive; format: functional
Mus musculus [5] = test: Inhibition of acute experimental autoimmune encephalomyelitis in SJL/N mice by 1 mg/kg/day p.o./s.c.; format: functional; conditions: route oral
Mus musculus [6] = test: Inhibition of acute experimental autoimmune encephalomyelitis in SJL/N mice by 0.2 mg/kg/day p.o./s.c.; format: functional; conditions: po
Mus musculus [7] = test: Inhibition of acute experimental autoimmune encephalomyelitis in SJL/N mice by 5 mg/kg/day p.o./s.c.; format: functional; conditions: route oral
Mus musculus [8] = test: Inhibition of acute experimental autoimmune encephalomyelitis (aEAE) induced in SJL/N mice at a dose of 0.2 mg/kg/day, (po) was determined; Inactive <35% inhibition; format: functional, organism-based
Mus musculus [9] = test: Inhibition of acute experimental autoimmune encephalomyelitis (aEAE) induced in SJL/N mice at a dose of 1 mg/kg/day, (po) was determined; Inactive; format: functional
Mus musculus [10] = test: Inhibition of acute experimental autoimmune encephalomyelitis (aEAE) induced in SJL/N mice at a dose of 5 mg/kg/day, (po) was determined; Inactive; format: functional
Mus musculus [11] = test: Inhibition of acute experimental autoimmune encephalomyelitis (aEAE) induced in SJL/N mice at a dose of 5 mg/kg/day, (sc) was determined; format: functional
Mus musculus [12] = test: Inhibition of acute experimental autoimmune encephalomyelitis (aEAE) induced in SJL/N mice at a dose of 5 mg/kg/day, (sc) was determined; Inactive; format: functional

Compound	inhibition in vivo at 1 mg/kg/day (Mus musculus [1]) [%]	inhibition in vivo at 0.2 mg/kg/day (Mus musculus [2]) [%]	inhibition in vivo at 5 mg/kg/day (Mus musculus [3]) [%]	other results
CN(C(=O)c1c(O)c2c([N+](=O)[O-])cccc2n(C)c1=O)c1ccccc1	96	46	100	
CN(C)c1cccc2c1c(O)c(C(=O)N(C)c1ccccc1)c(=O)n2C	93	58	100	
COc1cccc2c1c(O)c(C(=O)N(C)c1ccccc1Cl)c(=O)n2C	50		68	inhibition in vivo at 0.2 mg/kg/day (Mus musculus [4]): < 35%
COc1cccc2c1c(O)c(C(=O)N(C)c1c(F)cccc1F)c(=O)n2C	43	28		
COc1ccc2c(c1)c(O)c(C(=O)N(C)c1ccccc1)c(=O)n2C				inhibition in vivo at 1 mg/kg/day (Mus musculus [5]): 100%; inhibition in vivo at 0.2 mg/kg/day (Mus musculus [6]): 83%; inhibition in vivo at 5 mg/kg/day (Mus musculus [7]): 100%
COc1cccc2c1c(O)c(C(=O)N(C)c1ccccc1F)c(=O)n2C	82	94	100	
CCN(C(=O)c1c(O)c2c(C)cccc2n(C)c1=O)c1ccccc1	65		85	inhibition (Mus musculus [8]): inactive
Cc1ccc2c(c1)c(O)c(C(=O)N(C)c1ccccc1)c(=O)n2C				inhibition in vivo at 1 mg/kg/day (Mus musculus [5]): 79%; inhibition in vivo at 0.2 mg/kg/day (Mus musculus [6]): 62%; inhibition in vivo at 5 mg/kg/day (Mus musculus [7]): 100%
COc1cccc2c1c(O)c(C(=O)N(C)c1cc(F)ccc1F)c(=O)n2C	90	62	95	
CCN(C(=O)c1c(O)c2cc(C(F)(F)F)ccc2n(C)c1=O)c1ccccc1	57			inhibition in vivo at 0.2 mg/kg/day (Mus musculus [4]): < 35%
CCN(C(=O)c1c(O)c2c(F)cccc2n(C)c1=O)c1ccccc1	60			
CC(C)N(C(=O)c1c(O)c2c(Cl)cccc2n(C)c1=O)c1ccccc1	54		70	inhibition in vivo at 0.2 mg/kg/day (Mus musculus [4]): < 35%
COc1cccc2c1c(O)c(C(=O)N(C)c1cccc(Oc3ccccc3)c1)c(=O)n2C				inhibition in vivo at 1 mg/kg/day (Mus musculus [5]): 63%; inhibition in vivo at 0.2 mg/kg/day (Mus musculus [6]): 47%; inhibition in vivo at 5 mg/kg/day (Mus musculus [7]): 90%
CCc1ccc2c(c1)c(O)c(C(=O)N(CC)c1ccccc1)c(=O)n2C				inhibition in vivo at 1 mg/kg/day (Mus musculus [9]): < 35%; inhibition in vivo at 5 mg/kg/day (Mus musculus [10]): < 35%
Cc1cccc2c1c(O)c(C(=O)N(C)c1ccccc1)c(=O)n2C				inhibition in vivo at 1 mg/kg/day (Mus musculus [5]): 100%; inhibition in vivo at 0.2 mg/kg/day (Mus musculus [6]): 95%; inhibition in vivo at 5 mg/kg/day (Mus musculus [7]): 97%
CCCN(C(=O)c1c(O)c2c(Cl)cccc2n(C)c1=O)c1ccccc1	94	49	100	
COc1cccc2c1c(O)c(C(=O)N(C)c1cccc(Cl)c1)c(=O)n2C	85	54	71	
COc1cccc2c1c(O)c(C(=O)N(C)c1ccc(C(C)(C)C)cc1)c(=O)n2C	84	60	98	
COc1cccc2c1c(O)c(C(=O)N(C)c1ccc(F)cc1)c(=O)n2C				inhibition in vivo at 0.2 mg/kg/day (Mus musculus [6]): 92%; inhibition in vivo at 5 mg/kg/day (Mus musculus [7]): 93%
CSc1cccc2c1c(O)c(C(=O)N(C)c1ccccc1)c(=O)n2C	100	94	100	
C=CCN(C(=O)c1c(O)c2c(Cl)cccc2n(C)c1=O)c1ccccc1	59		81	
CCN(C(=O)c1c(O)c2c(C(F)(F)F)cccc2n(C)c1=O)c1ccccc1	80	49		
CN(C)c1ccc2c(c1)c(O)c(C(=O)N(C)c1ccccc1)c(=O)n2C				inhibition in vivo at 5 mg/kg/day (Mus musculus [10]): < 35%
CCOc1ccc2c(c1)c(O)c(C(=O)N(C)c1ccc(F)cc1)c(=O)n2C				inhibition in vivo at 5 mg/kg/day (Mus musculus [11]): 53%
CCOc1cccc2c1c(O)c(C(=O)N(C)c1ccccc1)c(=O)n2C	40	44	76	
CN(C(=O)c1c(O)c2cc(C(F)(F)F)ccc2n(C)c1=O)c1ccccc1				inhibition in vivo at 1 mg/kg/day (Mus musculus [5]): 100%; inhibition in vivo at 0.2 mg/kg/day (Mus musculus [6]): 67%; inhibition in vivo at 5 mg/kg/day (Mus musculus [7]): 100%
COc1ccc2nc(O)c(C(=O)N(C)c3ccc(F)cc3)c(O)c2c1				inhibition in vivo at 5 mg/kg/day (Mus musculus [12]): < 35%
CCN(C(=O)c1c(O)c2c(OC)cccc2n(C)c1=O)c1ccccc1				inhibition in vivo at 1 mg/kg/day (Mus musculus [5]): 73%; inhibition in vivo at 0.2 mg/kg/day (Mus musculus [6]): 69%; inhibition in vivo at 5 mg/kg/day (Mus musculus [7]): 86%
CN(C(=O)c1c(O)c2ccc(Cl)cc2n(C)c1=O)c1ccccc1				inhibition in vivo at 5 mg/kg/day (Mus musculus [12]): < 35%
